Experimental data published in ChEMBL document CHEMBL1121596, “Metabolic beta-hydroxylation and N-oxidation of N'-nitrosonornicotine” (J Med Chem, 1980).

Organism: Rattus norvegicus
Assay: Rate of formation of compound by F-344 rat liver microsomes
Type: ADME

Row | SMILES | Rate
1 | O=NN1CCCC1c1ccc[n+]([O-])c1 (stereo not given) | 0.57 nmol/min/mg
2 | O=C(CCCO)c1cccnc1 | 0.4 nmol/min/mg
3 | O=NN1CCC(O)C1c1cccnc1 (stereo not given) | < 0.01 nmol/min/mg
4 | O=NN1CC(O)CC1c1cccnc1 (stereo not given) | < 0.01 nmol/min/mg
5 | OC1CCC(c2cccnc2)O1 (stereo not given) | 0.76 nmol/min/mg
